From the NIST ThermoML archive (doi:10.1016/j.jct.2008.04.006)

Legend:
[1] = xn = mol fraction of the nth substance listed; settings: 100 kPa, Liquid
[2] = refractive index (Na D-line) (dimensionless); xn = mol fraction of the nth substance listed; settings: 298.15 K, 100 kPa, Liquid, Standard Abbe refractometry
[3] = 100 kPa, Liquid
[4] = refractive index (Na D-line) (dimensionless); settings: 298.15 K; 101.33 kPa; Liquid; Standard Abbe refractometry

COS(=O)(=O)[O-].Cn1cc[n+](C)c1 [1,3-dimethylimidazolium methylsulfate] + O
[1]
Settings	mass density, 298.15 K [kg/m3]	mass density, 313.15 K [kg/m3]	mass density, 328.15 K [kg/m3]	viscosity, 298.15 K [mPa·s]	viscosity, 313.15 K [mPa·s]	viscosity, 328.15 K [mPa·s]
x2 = 0	1329.12	1318.56	1308.13	77.7	41.68	25.21
x2 = 0.0497	1326.99	1316.44	1306.09	68.1	37.51	23.95
x2 = 0.1475	1322.81	1312.31	1301.96	53.6	30.44	19.85
x2 = 0.2128	1319.54	1309.03	1298.64	44.93	25.86	17.11
x2 = 0.3086	1313.75	1303.27	1292.81	35.23	20.76	13.79
x2 = 0.3869	1307.71	1297.25	1286.89	27.57	16.93	10.5
x2 = 0.4947	1296.97	1286.56	1276.22	19.55	12.41	8.521
x2 = 0.5959	1282.77	1272.39	1262.04	13.88	9.041	6.336
x2 = 0.6947	1262.17	1251.91	1240.95	9.599	6.368	4.518
x2 = 0.7966	1226.82	1216.82	1206.64	5.928	4.027	2.917
x2 = 0.8962	1162.06	1152.98	1143.43	2.925	2.069	1.548
x2 = 0.9485	1100.41	1092.64	1084.03	1.745	1.261	0.99

[2]
Settings	refractive index
x2 = 0	1.48296
x2 = 0.0497	1.48187
x2 = 0.1475	1.47986
x2 = 0.2128	1.47824
x2 = 0.3086	1.47536
x2 = 0.3869	1.47252
x2 = 0.4947	1.46739
x2 = 0.5959	1.46071
x2 = 0.6947	1.45105
x2 = 0.7966	1.43485
x2 = 0.8962	1.40572
x2 = 0.9485	1.37848

CCO [ethanol]
[3]
Settings	mass density [kg/m3]	viscosity [mPa·s]
298.15 K	785.46	1.082
313.15 K	772	0.827
328.15 K	758.55	0.641

Settings	refractive index
[4]	1.36023

CCO [ethanol] + COS(=O)(=O)[O-].Cn1cc[n+](C)c1
[1], x1 = 1
Settings	mass density [kg/m3]	viscosity [mPa·s]
298.15 K	785.46	1.082
313.15 K	772	0.827
328.15 K	758.55	0.641

Settings	refractive index
[2], x1 = 1	1.36023
